Measured values as given in patent US10428081B2, “EGFR inhibitor, preparation method and use thereof” (Shanghai Hansoh Biomedical Co., Ltd., priority 2014, dated 2019).

Legend:
wild-type EGFR enzyme = wild-type EGFR enzyme (Homo sapiens, UniProt P00533); assay: Enzymologic experiment of wild-type (WT) EGFR (TR-FRET); assay type: biochemical; conditions: ATP 0.1 to 5 uM
Experimental: 2. Enzymologic Experiment of Wild-Type (WT) EGFR
In this experiment, the inhibitory effect of compounds on wild-type EGFR enzyme was tested by a fluorescence resonance energy transfer (TR-FRET) method, and the half maximal inhibitory concentration IC50 of the compounds on enzymatic activity was determined.
1) 1 to 5 μL of wild-type EGFR enzyme solution was added to a 384-well plate, and the final concentration of the enzyme was 0.1 to 1 nM.
(§1) 2) 1 to 5 μL of diluted solution in gradient of the compound was added.
(§2) 3) The mixture was incubated for 10 minutes at room temperature.
(§3) 6) 5 μL of EDTA stop solution was added to terminate the reaction for 5 minutes.
7) 5 μL of a test solution containing the labeled antibody was added, and the mixture was incubated at room temperature for 1 hour.
9) The inhibition rates were calculated from the fluorescence signal values.
(§4) 10) The IC50 of the compound was obtained by curve fitting according to the inhibition rates at different concentrations.

[1] = target: exon 20 T790M mutant-type EGFR enzyme (Homo sapiens, UniProt P00533, T790M); assay: Enzymologic experiment of T790M mutant-type EGFR (TR-FRET); assay type: biochemical; conditions: for IC50: T790M EGFR enzyme, TR-FRET, ATP 1 to 10 uM; for Selectivity of wild-type/mutant-type: ratio WT IC50 / T790M IC50, enzyme
Chain of exon 20 T790M mutant-type EGFR enzyme (P00533 25-1210 T790M): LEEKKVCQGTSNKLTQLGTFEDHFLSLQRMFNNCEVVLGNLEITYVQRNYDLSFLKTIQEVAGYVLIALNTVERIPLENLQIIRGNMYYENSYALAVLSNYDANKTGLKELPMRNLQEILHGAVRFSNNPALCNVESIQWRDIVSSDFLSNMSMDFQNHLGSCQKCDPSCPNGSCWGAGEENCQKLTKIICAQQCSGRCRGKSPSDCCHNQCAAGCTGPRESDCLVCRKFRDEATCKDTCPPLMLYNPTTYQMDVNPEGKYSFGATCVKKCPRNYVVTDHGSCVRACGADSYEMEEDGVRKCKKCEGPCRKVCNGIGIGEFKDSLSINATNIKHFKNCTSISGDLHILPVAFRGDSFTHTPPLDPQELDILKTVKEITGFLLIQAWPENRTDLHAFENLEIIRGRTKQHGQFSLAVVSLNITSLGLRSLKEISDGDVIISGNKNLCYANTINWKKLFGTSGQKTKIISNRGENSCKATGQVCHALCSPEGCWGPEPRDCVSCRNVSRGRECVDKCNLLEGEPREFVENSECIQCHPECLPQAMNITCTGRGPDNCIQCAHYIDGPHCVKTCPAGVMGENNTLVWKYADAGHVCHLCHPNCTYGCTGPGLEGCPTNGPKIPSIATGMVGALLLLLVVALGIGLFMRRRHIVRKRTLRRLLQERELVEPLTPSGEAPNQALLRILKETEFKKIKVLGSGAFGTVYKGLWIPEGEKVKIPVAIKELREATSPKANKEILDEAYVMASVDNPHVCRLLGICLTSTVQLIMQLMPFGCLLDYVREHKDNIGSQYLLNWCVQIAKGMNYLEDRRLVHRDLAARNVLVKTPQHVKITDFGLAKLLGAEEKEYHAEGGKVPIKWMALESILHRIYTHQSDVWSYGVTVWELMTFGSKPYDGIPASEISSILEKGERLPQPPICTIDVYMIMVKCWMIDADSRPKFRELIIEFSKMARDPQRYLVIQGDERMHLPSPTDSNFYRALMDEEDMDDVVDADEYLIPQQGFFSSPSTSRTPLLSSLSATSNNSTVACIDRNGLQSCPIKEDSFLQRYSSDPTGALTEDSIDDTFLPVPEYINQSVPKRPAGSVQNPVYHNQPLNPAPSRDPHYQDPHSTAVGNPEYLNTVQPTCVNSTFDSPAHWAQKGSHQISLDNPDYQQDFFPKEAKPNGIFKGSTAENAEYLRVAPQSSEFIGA
Experimental: as §1, §2, §3
7) […] of a test solution containing the labeled antibody was added, and the mixture was incubated at room temperature for 1 hour.
9) The inhibition rates were calculated according to the fluorescence signal values.
as §4

NCI-H1975 cells = assay: Inhibition of NCI-H1975 cell proliferation (CellTiter-Glo); assay type: cell-based; conditions: for IC50: Homo sapiens, NCI-H1975, 72 h, NCI-H1975 cell proliferation, 72 hours, CellTiter-Glo, read-out: EGFR IC50 (nM) H1975; for Selectivity of wild-type/mutant-type: ratio A431 IC50 / H1975 IC50, cells
Experimental: 3. Experiment on the Inhibition of NCI-H1975 Cell Proliferation
In this experiment, the inhibitory effect of the compounds on NCI-H1975 cell proliferation was tested by a CellTiter-Glo method, and the half maximal inhibitory concentration (IC50) of the compounds on the activity of cell proliferation was determined.
The culture plate was incubated in an incubator for 16 to 24 hours (37° C., 5% CO2).
(§5) 2) Different concentrations of the test compound in a gradient dilution were added to the cells in the culture plate. The culture plate was incubated in an incubator for 72 hours (37° C., 5% CO2).
3) 50 to 100 μL of CellTiter-Glo reagent was added to each well. Then, the culture plate was shaken for 10 minutes, and left to stand at room temperature for 10 minutes.
(§6) 4) The chemiluminescence signal values of each plate were determined by a microplate reader.
5) The inhibition rates were calculated according to the chemiluminescence signal values.
6) The IC50 of the compound was obtained by curve fitting according to the inhibition rates at different concentrations.

A431 cells = assay: Inhibition of A431 cell proliferation (CellTiter-Glo); assay type: cell-based; conditions: Homo sapiens, A-431, 72 h, read-out: EGFR IC50 (nM) A431
Experimental: 4. Experiment on the Inhibition of A431 Cell Proliferation
In this experiment, the inhibitory effect of the compounds on A431 cell proliferation was tested by a CellTiter-Glo method, and the half maximal inhibitory concentration (IC50) of the compounds on the activity of cell proliferation was determined.
The culture plate was incubated in the incubator for 16 to 24 hours (37° C., 5% CO2).
as §5
3) 50 to 100 μL of CellTiter-Glo reagent was added to each well. Then the culture plate was shaken for 10 minutes, and left to stand at room temperature for 10 minutes.
as §6
5) The inhibition rates were calculated according to the chemiluminescence signal values. 6) The IC50 of the compound was obtained by curve fitting according to the inhibition rates at different concentrations.

Chain of wild-type EGFR enzyme (P00533 25-1210): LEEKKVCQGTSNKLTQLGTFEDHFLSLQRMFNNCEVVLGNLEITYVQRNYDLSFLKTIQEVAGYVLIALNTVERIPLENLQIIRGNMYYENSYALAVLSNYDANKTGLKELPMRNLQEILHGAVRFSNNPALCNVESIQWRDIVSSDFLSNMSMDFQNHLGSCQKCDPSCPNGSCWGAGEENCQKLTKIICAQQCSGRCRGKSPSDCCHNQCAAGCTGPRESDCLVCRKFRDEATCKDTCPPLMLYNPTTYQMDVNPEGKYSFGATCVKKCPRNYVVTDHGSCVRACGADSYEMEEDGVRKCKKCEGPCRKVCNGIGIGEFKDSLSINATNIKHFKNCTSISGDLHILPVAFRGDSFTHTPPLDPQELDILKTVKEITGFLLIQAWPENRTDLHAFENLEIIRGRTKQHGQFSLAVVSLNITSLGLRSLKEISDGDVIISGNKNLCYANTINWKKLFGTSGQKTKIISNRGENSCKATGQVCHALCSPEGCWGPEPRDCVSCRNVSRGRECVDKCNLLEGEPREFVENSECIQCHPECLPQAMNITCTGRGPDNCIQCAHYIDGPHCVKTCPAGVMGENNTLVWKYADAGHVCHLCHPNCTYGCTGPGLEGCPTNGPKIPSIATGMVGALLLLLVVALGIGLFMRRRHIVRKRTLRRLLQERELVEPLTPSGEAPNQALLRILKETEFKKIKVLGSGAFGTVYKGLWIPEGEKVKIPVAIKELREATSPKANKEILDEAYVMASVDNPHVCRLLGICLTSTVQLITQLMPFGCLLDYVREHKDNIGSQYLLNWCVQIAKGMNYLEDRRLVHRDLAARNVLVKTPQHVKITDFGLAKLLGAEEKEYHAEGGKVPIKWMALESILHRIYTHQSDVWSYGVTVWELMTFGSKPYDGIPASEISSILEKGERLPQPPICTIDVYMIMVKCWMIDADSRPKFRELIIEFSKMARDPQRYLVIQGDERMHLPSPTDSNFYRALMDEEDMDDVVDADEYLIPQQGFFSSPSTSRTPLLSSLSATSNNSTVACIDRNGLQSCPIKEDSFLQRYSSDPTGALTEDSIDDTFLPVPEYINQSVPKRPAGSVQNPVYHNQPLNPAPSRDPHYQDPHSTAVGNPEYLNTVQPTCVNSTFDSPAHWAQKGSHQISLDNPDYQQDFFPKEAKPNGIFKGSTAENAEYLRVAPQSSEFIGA

Compound | IC50 (wild-type EGFR enzyme) [nM] | IC50 [1] [nM] | Selectivity of wild-type/mutant-type [1] | IC50 (NCI-H1975 cells) [nM] | IC50 (A431 cells) [nM] | Selectivity of wild-type/mutant-type (NCI-H1975 cells)
C=CC(=O)Nc1cc(Nc2nccc(-c3cn(C)c4cc(C5CC5)ccc34)n2)c(OC)cc1N(C)CCN(C)C [Example 22, N-(5-((4-(6-cyclopropyl-1-methyl-1H-indol-3-yl)pyrimidin-2-yl)amino)-2-((2-(dimethylamino)ethyl)(methyl)amino)-4-methoxyphenyl)acrylamide] | 7.44 | 0.71 | 10.4 | 13.2 | 800 | 60.6
C=CC(=O)Nc1cc(Nc2nccc(-c3cn(C)c4ccc(OC)cc34)n2)c(OC)cc1N(C)CCN(C)C [Example 24, N-(2-((2-(dimethylamino)ethyl)(methyl)amino)-4-methoxy-5-((4-(5-methoxy-1-methyl-1H-indol-3-yl)pyrimidin-2-yl)amino)phenyl)acrylamide] | 4.02 | 3.53 | 1.1 | 8.62 | 453 | 52.59
C=CC(=O)Nc1cc(Nc2nccc(-c3cn(C)c4cc(OC)ccc34)n2)c(OC)cc1N(C)CCN(C)C [Example 25, N-(2-((2-(dimethylamino)ethyl)(methyl)amino)-4-methoxy-5-((4-(6-methoxy-1-methyl-1H-indol-3-yl)pyrimidin-2-yl)amino)phenyl)acrylamide] | 7.11 | 0.36 | 19.9 | 4.56 | 93.2 | 20.45
C=CC(=O)Nc1cc(Nc2nccc(-c3cn(C)c4cc(F)c(F)cc34)n2)c(OC)cc1N(C)CCN(C)C [Example 28, N-(5-((4-(5,6-difluoro-1-methyl-1H-indol-3-yl)pyrimidin-2-yl)amino)-2-((2-(dimethylamino)ethyl)(methyl)amino)-4-methoxyphenyl)acrylamide] | 1.89 | 1.83 | 1.0 | 6.4 | 272 | 42.52
C=CC(=O)Nc1cc(Nc2nccc(-n3ncc4ccccc43)n2)c(OC)cc1N(C)CCN(C)C [Example 40, N-(5-((4-(1H-indazol-1-yl)pyrimidin-2-yl)amino)-2-((2-(dimethylamino)ethyl)(methyl)amino)-4-methoxyphenyl)acrylamide] | 3.36 | 0.39 | 8.62 | 1.95 | 339 | 174.05
C=CC(=O)Nc1cc(Nc2nccc(-n3ncc4ccc(OC)cc43)n2)c(OC)cc1N(C)CCN(C)C [Example 42, N-(2-((2-(dimethylamino)ethyl)(methyl)amino)-4-methoxy-5-((4-(6-methoxy-1H-indazol-1-yl)pyrimidin-2-yl)amino)phenyl)acrylamide] | 0.82 | 0.48 | 1.71 | 5 | 76.3 | 15.25
C=CC(=O)Nc1cc(Nc2ncc(Cl)c(-n3ncc4cc(OC)ccc43)n2)c(OC)cc1N(C)CCN(C)C [Example 48, N-(5-((5-chloro-4-(5-methoxy-1H-indazol-1-yl)pyrimidin-2-yl)amino)-2-((2-(dimethylamino)ethyl)(methyl)amino)-4-methoxyphenyl)acrylamide] | 2.52 | 0.24 | 10.5 | 1.75 | 102 | 58.06
C=CC(=O)Nc1cc(Nc2ncc(Cl)c(-n3ncc4cc(C#N)ccc43)n2)c(OC)cc1N(C)CCN(C)C [Example 51, N-(5-((5-chloro-4-(5-cyano-1H-indazol-1-yl)pyrimidin-2-yl)amino)-2-((2-(dimethylamino)ethyl)(methyl)amino)-4-methoxyphenyl)acrylamide] | 14.5 | 0.53 | 27.56 | 5.06 | 394 | 77.94
C=CC(=O)Nc1cc(Nc2nccc(-n3nc(C)c4cc(OC)c(OC)cc43)n2)c(OC)cc1N(C)CCN(C)C [Example 53, N-(5-((4-(5,6-dimethoxy-3-methyl-1H-indazol-1-yl)pyrimidin-2-yl)amino)-2-((2-(dimethylamino)ethyl)(methyl)amino)-4-methoxyphenyl)acrylamide] | 34.1 | 2.53 | 13.50 | 20 | 628 | 31.38
C=CC(=O)Nc1cc(Nc2nccc(-n3nc(C)c4ccc(OC)cc43)n2)c(OC)cc1N(C)CCN(C)C [Example 54, N-(2-((2-(dimethylamino)ethyl)(methyl)amino)-4-methoxy-5-((4-(6-methoxy-3-methyl-1H-indazol-1-yl)pyrimidin-2-yl)amino)phenyl)acrylamide] | 2.21 | 0.36 | 6.14 | 2.75 | 71.2 | 25.90

Further lines, with some results ahead:

IC50 (wild-type EGFR enzyme) [nM] | IC50 [1] [nM] | Selectivity of wild-type/mutant-type [1] | IC50 (NCI-H1975 cells) [nM] | IC50 (A431 cells) [nM] | Compound | Selectivity of wild-type/mutant-type (NCI-H1975 cells)
0.4 | 0.3 | 1.33 | 3.23 | 70.8 | C=CC(=O)Nc1cc(Nc2nccc(-c3cn(S(=O)(=O)N(C)C)c4ccccc34)n2)c(OC(F)F)cc1N(C)CCN(C)C [Example 21, N-(4-(difluoromethoxy)-2-((2-(dimethylamino)ethyl)(methyl)amino)-5-((4-(1-(N,N-dimethylsulfamoyl)-1H-indol-3-yl)pyrimidin-2-yl)amino)phenyl)acrylamide] | 21.93
2.5 | 0.51 | 4.90 | 5.93 | 138 | C=CC(=O)Nc1cc(Nc2nccc(-n3ncc4c(OC)cccc43)n2)c(OC)cc1N(C)CCN(C)C [Example 41, N-(2-((2-(dimethylamino)ethyl)(methyl)amino)-4-methoxy-5-((4-(4-methoxy-1H-indazol-1-yl)pyrimidin-2-yl)amino)phenyl)acrylamide] | 23.36
2.5 | 0.38 | 6.58 | 7.13 | 406 | C=CC(=O)Nc1cc(Nc2nccc(-n3nc(C4CC4)c4ccccc43)n2)c(OC)cc1N(C)CCN(C)C [Example 44, N-(5-((4-(3-cyclopropyl-1H-indazol-1-yl)pyrimidin-2-yl)amino)-2-((2-(dimethylamino)ethyl)(methyl)amino)-4-methoxyphenyl)acrylamide] | 56.93
6.3 | 0.17 | 37.06 | 1.93 | 128 | C=CC(=O)Nc1cc(Nc2ncc(C(F)(F)F)c(-n3ncc4cc(OC)ccc43)n2)c(OC)cc1N(C)CCN(C)C [Example 49, N-(2-((2-(dimethylamino)ethyl)(methyl)amino)-4-methoxy-5-((4-(5-methoxy-1H-indazol-1-yl)-5-(trifluoromethyl)pyrimidin-2-yl)amino)phenyl)acrylamide] | 66.48
6.39 | 0.66 | 9.68 | 6.14 | 503 | C=CC(=O)Nc1cc(Nc2nccc(-n3ncc4cc(C#N)ccc43)n2)c(OC)cc1N(C)CCN(C)C [Example 50, N-(5-((4-(5-cyano-1H-indazol-1-yl)pyrimidin-2-yl)amino)-2-((2-(dimethylamino)ethyl)(methyl)amino)-4-methoxyphenyl)acrylamide] | 81.87
